Source: ChEMBL document CHEMBL3611985, “Synthesis and structure-activity relationships of novel 9-oxime acylides with improved bactericidal activity” (2015)
≈ marks a conversion by molar mass, not a printed value.

Tests used:
Assay type in all cases: functional
Streptococcus pyogenes [1] = experiment: Bactericidal activity against Streptococcus pyogenes 01-968 expressing inducible ermA incubated for 20 to 24 hrs followed by sub-culturing for 24 hrs in absence of compound
Streptococcus pneumoniae [2] = experiment: Bactericidal activity against erythromycin-susceptible Streptococcus pneumoniae ATCC 49619 incubated for 20 to 24 hrs followed by sub-culturing for 24 hrs in absence of compound
Moraxella catarrhalis [3] = experiment: Ratio of MBC to MIC against erythromycin-susceptible Moraxella catarrhalis 11B366
Staphylococcus aureus [4] = experiment: Antimicrobial activity against methicillin-resistant Staphylococcus aureus PU20 expressing constitutive ermC incubated for 20 hrs by two-fold microbroth dilution method; settings: PU20, 20 h
Staphylococcus aureus [5] = experiment: Ratio of MBC to MIC against methicillin-resistant Staphylococcus aureus PU32 expressing inducible ermA
Streptococcus pneumoniae [6] = experiment: Antimicrobial activity against penicillin-susceptible Streptococcus pneumoniae PU09 incubated for 20 to 24 hrs by two-fold microbroth dilution method
Streptococcus pyogenes [7] = experiment: Antimicrobial activity against Streptococcus pyogenes 12-207 expressing mef incubated for 20 to 24 hrs by two-fold microbroth dilution method
Streptococcus pneumoniae [8] = experiment: Ratio of MBC to MIC against erythromycin-susceptible Streptococcus pneumoniae ATCC 49619
Haemophilus influenzae [9] = experiment: Bactericidal activity against azithromycin-susceptible and ampicillin-resistant Haemophilus influenzae 11P037 incubated for 20 to 24 hrs followed by sub-culturing for 24 hrs in absence of compound
Moraxella catarrhalis [10] = experiment: Antimicrobial activity against erythromycin-susceptible Moraxella catarrhalis 11B366 incubated for 20 hrs by two-fold microbroth dilution method; settings: 11B366, 20 h
Haemophilus influenzae [11] = experiment: Ratio of MBC to MIC against azithromycin-susceptible and ampicillin-resistant Haemophilus influenzae 11P037
Staphylococcus aureus [12] = experiment: Antimicrobial activity against methicillin-resistant Staphylococcus aureus PU32 expressing inducible ermA incubated for 20 hrs by two-fold microbroth dilution method; settings: PU32, 20 h
Streptococcus pneumoniae [13] = experiment: Bactericidal activity against penicillin-susceptible Streptococcus pneumoniae PU09 incubated for 20 to 24 hrs followed by sub-culturing for 24 hrs in absence of compound
Staphylococcus aureus [14] = experiment: Bactericidal activity against methicillin-resistant Staphylococcus aureus PU20 expressing constitutive ermC incubated for 20 hrs followed by sub-culturing for 24 hrs in absence of compound
Streptococcus pyogenes [15] = experiment: Antimicrobial activity against Streptococcus pyogenes 01-968 expressing inducible ermA incubated for 20 to 24 hrs by two-fold microbroth dilution method
Streptococcus pneumoniae [16] = experiment: Ratio of MBC to MIC against penicillin-susceptible Streptococcus pneumoniae PU09
Haemophilus influenzae [17] = experiment: Antimicrobial activity against azithromycin-susceptible and ampicillin-resistant Haemophilus influenzae 11P037 incubated for 20 to 24 hrs by two-fold microbroth dilution method
Staphylococcus aureus [18] = experiment: Ratio of MBC to MIC against methicillin-resistant Staphylococcus aureus PU20 expressing constitutive ermC
Staphylococcus aureus [19] = experiment: Bactericidal activity against methicillin-resistant Staphylococcus aureus PU32 expressing inducible ermA incubated for 20 hrs followed by sub-culturing for 24 hrs in absence of compound
Streptococcus pyogenes [20] = experiment: Ratio of MBC to MIC against Streptococcus pyogenes 01-968 expressing inducible ermA
Streptococcus pyogenes [21] = experiment: Bactericidal activity against Streptococcus pyogenes 12-207 expressing mef incubated for 20 to 24 hrs followed by sub-culturing for 24 hrs in absence of compound
Streptococcus pneumoniae [22] = experiment: Antimicrobial activity against erythromycin-susceptible Streptococcus pneumoniae ATCC 49619 incubated for 20 to 24 hrs by two-fold microbroth dilution method
Moraxella catarrhalis [23] = experiment: Bactericidal activity against erythromycin-susceptible Moraxella catarrhalis 11B366 incubated for 20 hrs followed by sub-culturing for 24 hrs in absence of compound
Streptococcus pyogenes [24] = experiment: Ratio of MBC to MIC against Streptococcus pyogenes 12-207 expressing mef
Streptococcus pneumoniae [25] = experiment: Antimicrobial activity against Streptococcus pneumoniae 07P390 expressing constitutive ermB incubated for 20 to 24 hrs by two-fold microbroth dilution method

Row | SMILES | MBC (Streptococcus pyogenes [1]) | MBC (Streptococcus pneumoniae [2]) | Ratio (Moraxella catarrhalis [3]) | MIC (Staphylococcus aureus [4]) | Ratio (Staphylococcus aureus [5]) | MIC (Streptococcus pneumoniae [6]) | MIC (Streptococcus pyogenes [7]) | Ratio (Streptococcus pneumoniae [8]) | MBC (Haemophilus influenzae [9]) | MIC (Moraxella catarrhalis [10]) | Ratio (Haemophilus influenzae [11]) | MIC (Staphylococcus aureus [12]) | MIC (Streptococcus pyogenes [15]) | MIC (Haemophilus influenzae [17]) | MBC (Staphylococcus aureus [19]) | Ratio (Streptococcus pyogenes [20]) | MBC (Streptococcus pyogenes [21]) | MIC (Streptococcus pneumoniae [22]) | MBC (Moraxella catarrhalis [23]) | Ratio (Streptococcus pyogenes [24]) | further results
1 | CC[C@H]1OC(=O)[C@H](C)[C@@H](OC(=O)Cc2ccccn2)[C@H](C)[C@@H](O[C@@H]2O[C@H](C)C[C@H](N(C)C)[C@H]2O)[C@](C)(OC)C[C@@H](C)/C(=N\OCC#Cc2cnc(N)nc2)[C@H](C)[C@H]2OC(=O)O[C@@]21C | 0.5 µg/mL (≈ 0.568 µM) | 0.031 µg/mL (≈ 0.0352 µM) | 2 | 128 µg/mL (≈ 145 µM) | 8 | 0.5 µg/mL (≈ 0.568 µM) | 0.25 µg/mL (≈ 0.284 µM) | 2 | 64 µg/mL (≈ 72.6 µM) | 2 µg/mL (≈ 2.27 µM) | 8 | 1 µg/mL (≈ 1.14 µM) | 0.25 µg/mL (≈ 0.284 µM) | 8 µg/mL (≈ 9.08 µM) | 8 µg/mL (≈ 9.08 µM) | 2 | > 2 µg/mL | 0.016 µg/mL (≈ 0.0182 µM) | 4 µg/mL (≈ 4.54 µM) | >8 | MBC (Streptococcus pneumoniae [13]): 1 µg/mL (≈ 1.14 µM); MBC (Staphylococcus aureus [14]): 256 µg/mL (≈ 291 µM); Ratio (Streptococcus pneumoniae [16]): 2; Ratio (Staphylococcus aureus [18]): 2
2 | CC[C@H]1OC(=O)[C@H](C)[C@@H](OC(=O)Cc2ccccn2)[C@H](C)[C@@H](O[C@@H]2O[C@H](C)C[C@H](N(C)C)[C@H]2O)[C@](C)(OC)C[C@@H](C)/C(=N\OCC#Cc2cncc(N)c2)[C@H](C)[C@H]2OC(=O)O[C@@]21C | 0.5 µg/mL (≈ 0.568 µM) | 0.008 µg/mL (≈ 0.00909 µM) | 2 | 128 µg/mL (≈ 145 µM) | >8 | 0.5 µg/mL (≈ 0.568 µM) | 0.125 µg/mL (≈ 0.142 µM) | >=1 | > 64 µg/mL | 1 µg/mL (≈ 1.14 µM) | >8 | 0.5 µg/mL (≈ 0.568 µM) | 0.125 µg/mL (≈ 0.142 µM) | 8 µg/mL (≈ 9.09 µM) | > 4 µg/mL | 4 | > 1 µg/mL | ≤ 0.008 µg/mL | 2 µg/mL (≈ 2.27 µM) | >8 | MBC (Streptococcus pneumoniae [13]): 1 µg/mL (≈ 1.14 µM); MBC (Staphylococcus aureus [14]): 256 µg/mL (≈ 291 µM); Ratio (Streptococcus pneumoniae [16]): 2; Ratio (Staphylococcus aureus [18]): 2
3 | CC[C@H]1OC(=O)[C@H](C)[C@@H](OC(=O)Cc2ccccn2)[C@H](C)[C@@H](O[C@@H]2O[C@H](C)C[C@H](N(C)C)[C@H]2O)[C@](C)(OC)C[C@@H](C)/C(=N\OCC#Cc2cncc(C(N)=O)c2)[C@H](C)[C@H]2OC(=O)O[C@@]21C | 0.062 µg/mL (≈ 0.0683 µM) | 0.016 µg/mL (≈ 0.0176 µM) | 2 | 256 µg/mL (≈ 282 µM) | >8 | 0.5 µg/mL (≈ 0.551 µM) | 0.016 µg/mL (≈ 0.0176 µM) | 1 | 64 µg/mL (≈ 70.5 µM) | 1 µg/mL (≈ 1.1 µM) | 8 | 0.5 µg/mL (≈ 0.551 µM) | 0.031 µg/mL (≈ 0.0341 µM) | 8 µg/mL (≈ 8.81 µM) | > 4 µg/mL | 2 | > 0.125 µg/mL | 0.016 µg/mL (≈ 0.0176 µM) | 2 µg/mL (≈ 2.2 µM) | >8 | MBC (Streptococcus pneumoniae [13]): 1 µg/mL (≈ 1.1 µM); MBC (Staphylococcus aureus [14]): > 256 µg/mL; Ratio (Streptococcus pneumoniae [16]): 2; Ratio (Staphylococcus aureus [18]): >2
4 | CC[C@H]1OC(=O)[C@H](C)[C@@H](OC(=O)Cc2ccccn2)[C@H](C)[C@@H](O[C@@H]2O[C@H](C)C[C@H](N(C)C)[C@H]2O)[C@](C)(OC)C[C@@H](C)/C(=N\OCC#Cc2cccnc2)[C@H](C)[C@H]2OC(=O)O[C@@]21C | 0.25 µg/mL (≈ 0.289 µM) | 0.008 µg/mL (≈ 0.00925 µM) | 2 | 128 µg/mL (≈ 148 µM) | >8 | 0.5 µg/mL (≈ 0.578 µM) | 0.125 µg/mL (≈ 0.145 µM) | >=1 | > 64 µg/mL | 2 µg/mL (≈ 2.31 µM) | >8 | 1 µg/mL (≈ 1.16 µM) | 0.25 µg/mL (≈ 0.289 µM) | 8 µg/mL (≈ 9.25 µM) | > 8 µg/mL | 1 | > 1 µg/mL | ≤ 0.008 µg/mL | 4 µg/mL (≈ 4.62 µM) | >8 | MBC (Streptococcus pneumoniae [13]): 1 µg/mL (≈ 1.16 µM); MBC (Staphylococcus aureus [14]): 128 µg/mL (≈ 148 µM); Ratio (Streptococcus pneumoniae [16]): 2; Ratio (Staphylococcus aureus [18]): 1
5 | CC[C@H]1OC(=O)[C@H](C)[C@@H](OC(=O)Cc2ccccn2)[C@H](C)[C@@H](O[C@@H]2O[C@H](C)C[C@H](N(C)C)[C@H]2O)[C@](C)(OC)C[C@@H](C)/C(=N\OCC#Cc2ccc(-n3ccnc3)cc2)[C@H](C)[C@H]2OC(=O)O[C@@]21C | > 0.5 µg/mL | 0.25 µg/mL (≈ 0.269 µM) | 2 | 32 µg/mL (≈ 34.4 µM) | >8 | 2 µg/mL (≈ 2.15 µM) | 1 µg/mL (≈ 1.08 µM) | 2 |  | 4 µg/mL (≈ 4.3 µM) |  | 2 µg/mL (≈ 2.15 µM) | 0.062 µg/mL (≈ 0.0667 µM) | > 256 µg/mL | > 16 µg/mL | >8 | 8 µg/mL (≈ 8.6 µM) | 0.125 µg/mL (≈ 0.134 µM) | 8 µg/mL (≈ 8.6 µM) | 8 | MBC (Streptococcus pneumoniae [13]): 4 µg/mL (≈ 4.3 µM); MBC (Staphylococcus aureus [14]): 64 µg/mL (≈ 68.8 µM); Ratio (Streptococcus pneumoniae [16]): 2; Ratio (Staphylococcus aureus [18]): 2
6 | CC[C@H]1OC(=O)[C@H](C)[C@@H](O[C@H]2C[C@@](C)(OC)[C@@H](O)[C@H](C)O2)[C@H](C)[C@@H](O[C@@H]2O[C@H](C)C[C@H](N(C)C)[C@H]2O)[C@](C)(OC)C[C@@H](C)C(=O)[C@H](C)[C@@H](O)[C@]1(C)O [CLARITHROMYCIN] | > 8 µg/mL |  | 2 | > 64 µg/mL | >2 | 2 µg/mL (≈ 2.67 µM) | 16 µg/mL (≈ 21.4 µM) |  | 8 µg/mL (≈ 10.7 µM) | 0.125 µg/mL (≈ 0.167 µM) | 8 | 32 µg/mL (≈ 42.8 µM) | 4 µg/mL (≈ 5.35 µM) | 4 µg/mL (≈ 5.35 µM) | > 16 µg/mL | >8 | 32 µg/mL (≈ 42.8 µM) | 0.062 µg/mL (≈ 0.0829 µM) | 0.25 µg/mL (≈ 0.334 µM) | 2 | MIC (Streptococcus pneumoniae [25]): > 64 µg/mL
7 | CC[C@H]1OC(=O)[C@H](C)C(=O)[C@H](C)[C@@H](O[C@@H]2O[C@H](C)C[C@H](N(C)C)[C@H]2O)[C@](C)(OC)C[C@@H](C)C(=O)[C@H](C)[C@H]2N(CCCCn3cnc(-c4cccnc4)c3)C(=O)O[C@]12C [TELITHROMYCIN] | 0.125 µg/mL (≈ 0.154 µM) |  | 1 | > 64 µg/mL | >8 | 0.25 µg/mL (≈ 0.308 µM) | 0.5 µg/mL (≈ 0.616 µM) |  | 4 µg/mL (≈ 4.93 µM) | 0.25 µg/mL (≈ 0.308 µM) | 4 | 0.25 µg/mL (≈ 0.308 µM) | 2 µg/mL (≈ 2.46 µM) | 2 µg/mL (≈ 2.46 µM) | > 1 µg/mL |  | 1 µg/mL (≈ 1.23 µM) | 0.031 µg/mL (≈ 0.0382 µM) | 0.25 µg/mL (≈ 0.308 µM) | 2 | MIC (Streptococcus pneumoniae [25]): 0.062 µg/mL (≈ 0.0764 µM)
